Laboratory results reported in patent US20040018528A1, “Novel biomarkers of tyrosine kinase inhibitor exposure and activity in mammals” (Sugen, Inc., priority 2002, published 2004).
Several values for one entry are separate records, joined by “and”; a condition that tells them apart may be missing. Identical values can stand only once. Entries after “also recorded” stand apart in the source; their conditions may differ.

Legend:
HUVEC = experiment: pro-MMP1 ELISA of HUVEC conditioned media; assay type: cell-based, human; details: for Average pro-MMP1: HUVEC conditioned media
Protocol: Cells were propagated at 37° C. in a humidifed atmosphere of 5% CO2 using standard cell culture techniques. Cells were plated in 10-cm tissue culture plates at 8.5×10^5 cells/ml. After 6 hours the cells were quiesced by serum starvation overnight in starvation medium (EBM containing 0.5% FBS). […] Conditioned media was stored at −70° C. until subsequent analysis.
Reagents for human pro-Matrix Metalloproteinase 1 (pro-MMP-1) ELISA kits were obtained from R&D Systems, Inc. (Minneapolis, Minn.; catalog #DMP100). ELISAs were performed on conditioned media samples according to the manufacturers' instructions. The optical density of each well was determined using a universal microplate spectrophotometer (μQuant) from Bio-Tek Instruments, Inc. (Winooski, Vt.). KC-4 software from Bio-Tek Instruments, Inc. was used to extrapolate cytokine concentrations from the standard curves.

C-reactive protein (CRP) = experiment: C-reactive protein plasma ELISA; assay type: in vivo, human; details: patients, FIG. 27
Protocol: (§1) Reagents for FLT3 ligand (FL) and IL-6 ELISA kits were obtained from R&D Systems, Inc. (Minneapolis, Minn.; catalog #s DFK00, Q6000). C-reactive protein (CRP) (accession ID AAA 52075) ELISA kits were obtained from KMI Diagnostics (Minneapolis, Minn.; catalog #EU59131). ELISAs were performed on patient plasma according to the manufacturers' instructions. The FL and CRP kits relied on a colorimetric readout; the optical density of each well was determined using a microplate spectrophotometer and data was analyzed using KC-4 software from Bio-Tek Instruments, Inc. The IL-6 kit was a chemiluminescent sandwich ELISA; luminescence values were determined on a microplate luminometer. SOFTmaxPRO software was used to extrapolate cytokine concentrations from the standard curves.

[1] = system: OB-cadherin 1 (cadherin 11); experiment: Immunohistochemistry of OB-cadherin 1 in Colo205 xenograft tumors; assay type: in vivo, mice; details: 24 or 48 hours exposure, vs vehicle treated, IHC
Source text: Colo205 human colon xenograft tumors were isolated and fixed in Streck Tissue Fixative (Streck Laboratories, Inc., La Vista, […].). Samples used in immunohistochemistry were sent out to BioPathology Sciences Medical Corporation (South San Francisco, Calif.) for paraffin embedding and sectioning.
A rabbit polyclonal antibody recognizing the cytoplasmic tail region of OB-cadherin 1 (cadherin 11) was purchased from Zymed Laboratories, Inc. (Zymed reagent #71-7600; South San Francisco, Calif.).
Sections (4-5 μm) stained using an automated immunohistochemistry system (Benchmark System, Ventana Medical Systems, Inc., Tucson, Ariz.). In brief, slides were deparaffinized using heat at 75° C. and Ventana's EZ Prep product (Ventana reagent #950-102). Antigen retrieval was performed by incubating the slides for 30 min with Ventana's CC2 product (Ventana reagent #950-123), a citrate-based solution with pH 6.0. Primary antibody (5 μg/ml) was incubated for 24 min at room temperature, followed by a secondary detection system, using biotinylated secondary antibody (Vector anti-rabbit secondary, BA-1000, at 2.5 μg/ml; Vector Laboratories, Burlingame, Calif.) with incubation time of 8 min. […] All samples analyzed for OB-cadherin 1 expression were also stained with the omission of primary antibody as a negative control.

pro-MMP1 = pro-MMP1 levels in plasma of Study B patients; assay type: in vivo, human; details: Study B patients after receiving compound
FLT3 ligand (FL) = experiment: FLT3 ligand plasma ELISA; assay type: in vivo, human
Protocol: as §1, with “C-reactive protein (CRP) (accession ID AAA 52075) ELISA kits were obtained from KMI Diagnostics (Minneapolis, Minn.; catalog #EU59131).” left out

42 human cytokines = experiment: Antibody membrane array (RayBio Human Cytokine Array III) screen of patient plasma; assay type: in vivo; details: plasma of one Trial B patient, confirmed by MIG ELISA
Protocol: All of the ELISA-based screening of candidate proteins were performed with commercially available ELISA kits; the kits for the biomarkers described in this report are all available from R&D Systems (Minneapolis, Minn.). A commercially available membrane array containing antibodies for the detection of 42 human cytokines was also used in screening of a patient's plasma samples before and after treatment. The antibody array used in cytokine screening (RayBio Human Cytokine Array III) was from RayBiotech (Norcross, Ga.).

IP-10 = IP-10 plasma ELISA, Compound 1 Phase I trials; assay type: in vivo, human
Protocol: (§2) In Trials A and B, patients received Compound 1.
(§3) Data analysis was performed for each marker.

HUVECs = experiment: 2D gel analysis of conditioned media of VEGF-stimulated HUVECs; assay type: cell-based, human; details: HUVEC conditioned media; VEGF and compound 1 (1 uM) at 24 h; Run #1, Run #2
Protocol: Thawed conditioned media samples were precipitated with three volumes of acetone for 2 hours at −20° C., then centrifuged at 13000 RPM for 15 minutes. […] Protein was quantitated with Bio-Rad Protein Assay (cat#500-0006) using the microassay for cuvettes protocol.
Samples were diluted to 0.3 μg/μl with IEF Buffer containing 1% IPG Buffer pH 3-10 (Amersham). Eighteen centimeter IPG strips pH 3-10 (Amersham) were rehydrated with 120 μg sample (400 μL) under Drystrip Cover Fluid (Amersham) on the IPGphor (Amersham) at 20° C. for 18 hours. Strips were focused with the following program: 200 volts for 1 hour, ramped from 200 volts to 1000 volts over two hours, held at 1000 volts for 1 hour, ramped from 1000 volts to 8000 volts over 6 hours, then held at 8000 volts for 10 hours. […] Gels were over-layed with water-saturated butanol (Fisher), and left to polymerize at room temperature overnight.
Focused strips were equilibrated for ten minutes with gentle shaking in 10 milliliters Equilibration Buffer: 6 M Urea (Fisher), 50 mM tris-HCl pH 8.8 (Fisher), 30% glycerol (Fisher), 2% SDS (Fisher) with 1% dithiothreitol followed by ten minutes in Equilibration Buffer with 4% iodoacetamide.
The equilibrated strips were loaded onto the gel surfaces and sealed with hot agarose overlay solution containing 0.5% agarose in 50 mM tris-HCl pH 6.8, 2% SDS. […]

MIG = MIG plasma ELISA, Compound 1 Phase I trials; assay type: in vivo, human; details: individual patients; in pg/mL (unit assumed)
Protocol: as §2, §3

IL-6 = IL-6 plasma ELISA; assay type: in vivo, human; details: patients, FIG. 26
Protocol: as §1

VEGF/PLGF heterodimers = experiment: Hybrid ELISA for VEGF/PLGF heterodimers in patient plasma; assay type: in vivo, human; details: Trial C
Source text: Heterodimers of VEGF and PLGF have been reported in the scientific literature. To measure heterodimers, a hybrid ELISA assay was used, combining reagents from both the R&D Systems VEGF and PLGF ELISA kits (where VEGF antibodies are used in capture step and PLGF antibodies are used in detection step).

I-TAC = I-TAC plasma ELISA, Compound 1 Phase I trials; assay type: in vivo, human
Protocol: as §2, §3

[2] = patients checked for both proteins

CCN(CC)CCNC(=O)c1c(C)[nH]c(C=C2C(=O)Nc3ccc(F)cc32)c1C [Compound 1, 5-(5-Fluoro-2-oxo-1,2-dihydro-indol-3-ylidenemethyl)-2,4-dimethyl-1H-pyrrole-3-carboxylic acid (2-diethylamino-ethyl)-amide]
Average pro-MMP1 (HUVEC; 10 nM pre-treatment, 10 min post-VEGF): 5.41 ng/mL
Average pro-MMP1 (HUVEC; 10 nM pre-treatment, 8 hr post-VEGF): 14.93 ng/mL
Average pro-MMP1 (HUVEC; 10 nM pre-treatment, 24 hr post-VEGF): 70.21 ng/mL
Average pro-MMP1 (HUVEC; 10 nM pre-treatment, 48 hr post-VEGF): 135.35 ng/mL
Average pro-MMP1 (HUVEC; 100 nM pre-treatment, 10 min post-VEGF): 5.78 ng/mL
Average pro-MMP1 (HUVEC; 100 nM pre-treatment, 8 hr post-VEGF): 12.75 ng/mL
Average pro-MMP1 (HUVEC; 100 nM pre-treatment, 24 hr post-VEGF): 50.26 ng/mL
Average pro-MMP1 (HUVEC; 100 nM pre-treatment, 48 hr post-VEGF): 128.75 ng/mL
Average pro-MMP1 (HUVEC; 1 uM pre-treatment, 10 min post-VEGF): 5.04 ng/mL
Average pro-MMP1 (HUVEC; 1 uM pre-treatment, 8 hr post-VEGF): 14.48 ng/mL
Average pro-MMP1 (HUVEC; 1 uM pre-treatment, 24 hr post-VEGF): 50.42 ng/mL
Average pro-MMP1 (HUVEC; 1 uM pre-treatment, 48 hr post-VEGF): 103.09 ng/mL
levels of pro-MMP1 in HUVEC conditioned media (HUVEC; VEGF-treated HUVEC, pre-incubation at 10 nM, 100 nM or 1 uM): decreased
C-reactive protein (CRP) plasma level during treatment (C-reactive protein (CRP)): induced
protein expression of OB-cadherin 1 (cadherin 11) [1]: up-regulated; also recorded: up-regulation
pro-MMP1 levels in plasma of patients (pro-MMP1): increased
patients exhibiting an increase in FLT3 ligand (FL) concentration (FLT3 ligand (FL); 18 patients enrolled in Trial B, day 1 to day 28): 100%
FLT3 ligand (FL) plasma level during treatment (FLT3 ligand (FL); expanded set of patients, FIG. 25): induced; also recorded: Dramatic induction
level of MIG after treatment vs baseline (42 human cytokines): significantly higher
IP-10 plasma level, end C1 dosing (IP-10; individual patients, >500 = above highest standard): >500
patients with MIG and IP-10 induced in tandem (IP-10; [2]): 6 of 6
Spot #1202 (pro-MMP-1) quantification, 2D gel (HUVECs): 270 and 484.7
MIG plasma level, end C1 dosing (MIG): 138.56 and 739.71
interleukin-6 (IL-6) plasma level during treatment (IL-6): induced
patients tested with increase in plasma levels of VEGF/PLGF heterodimer (VEGF/PLGF heterodimers): 3 of 3
I-TAC plasma level, end C1 dosing (I-TAC; individual patients, in pg/mL (unit assumed)): >4000.0 and 212.26
patients with MIG and I-TAC induced in tandem (I-TAC; [2]): 5 of 5
